Assay results: US9694015B2, “Methods for the treatment of locally advanced breast cancer” (Celgene Corporation, priority 2012, dated 2017)
“And” between values parts separate entries of the source, which are not always exact repeats. Identical values can stand only once.

Tests used:
[1] = biological target: T1, Aiolos (Homo sapiens (Human), UniProt Q9UKT9); assay: Overexpressed flag-Aiolos-myc fusion protein in AU565 cells (western blot); format: cell-based
Description: In some experiments, cell lines were transfected with an Aiolos overexpression vector using Lipofectamine reagent in a batch method. Cells were seeded in a 12 well plate at 1×10^5 cells in a 3 mL volume per well. Where specified, cells were pretreated with MG132 at 10 uM for 1 hour, or DMSO was added as a control.
(§1) Cells were harvested and lysed in Pierce #89900 Ripa buffer containing 2× protease inhibitor cocktail from Pierce #78442. The lysate was applied to a QiaShredder to remove DNA. Total protein yield was measured using BioRad DC protein determination kit (Cat#500-0112). Lysates were stored at −80° C. until use. Samples were applied to BioRad Criterion PreCast gels, 10% (Bio-Rad#345-0010) and transferred to Bio-Rad Nitrocellulose/Filter Paper Sandwiches (#162-0233) for western blot analysis.

[2] = tested on: tumor cells; assay: Direct in vitro activity against tumor cells; format: cell-based
[3] = tested on: U87 (GBM), H929 (MM), WSU-DLCL2 and DOHH2 (NHL) xenografts; assay: Xenografts, single agent; format: in vivo
[4] = biological target: Ikaros (Homo sapiens (Human), UniProt Q13422); assay: Ikaros expression by western blot at 6 hours; format: cell-based; conditions: western blot at 6 hours after the treatment
[5] = tested on: HIF1-α; assay: Hypoxia-induced HIF1-α expression in solid tumor cell lines; format: cell-based; conditions: solid tumor cell lines (e.g., breast, ovarian, colorectal, HCC)
[6] = GLP 28-day toxicity study in rat; format: in vivo
[7] = biological target: T1, Aiolos; assay: Aiolos expression with and without proteasome inhibitor; format: cell-based
From the text: It appeared that the inhibitory effect correlates with compound's anti-proleferative activity in myeloma cells.

[8] = tested on: MCP-1; assay: LPS-stimulated hPBMC cytokine/chemokine production: MCP-1 enhancement; format: cell-based, human
From the text: (§2) Data provided are IC50 (μM) values for the indicated cytokines

[9] = biological target: T1, Aiolos; assay: Aiolos protein in myeloma cells; format: cell-based
[10] = GLP 28-day toxicity study in monkey; format: in vivo
[11] = tested on: IL-10; assay: LPS-stimulated hPBMC cytokine/chemokine production: IL-10 enhancement; format: cell-based, human
From the text: as §2

[12] = biological target: T1, Aiolos; assay: Endogenous Aiolos in breast cancer cells (western blot); format: cell-based
Description: Cell lines (AU565, ZR 75-1, BT-474, EFM-192A, HCC1954, HCC70, MB436 and BT549) were maintained using standard cell culture techniques. For endogenous Aiolos expression, cells were seeded in a 6 well plate at 0.5×10^6 cells per well in a 3 mL volume of media. Cells were allowed to adhere to the plate overnight.
as §1

[13] = biological target: T1, Aiolos; assay: Aiolos expression by western blot at 6 hours; format: cell-based; conditions: western blot at 6 hours after the treatment
[14] = tested on: RANTES; assay: LPS-stimulated hPBMC cytokine/chemokine production: RANTES enhancement; format: cell-based, human
[15] = tested on: NFKB; assay: NFKB DNA binding activity in DLBCL cells; format: cell-based

Cc1nc2cccc(N)c2c(=O)n1C1CCC(=O)NC1=O (stereo not shown) [Compound A, 3-(5-amino-2-methyl-4-oxo-4H-quinazolin-3-yl)-piperidine-2,6-dione]
time at which reduction of overexpressed Aiolos begins to show ([1]; AU565 cells overexpressing flag-Aiolos-myc): about 5 hours
inhibition of Aiolos with proteasome inhibitor MG-132 ([1]; addition of MG-132): rescued
direct in vitro activity against tumor cells [2]: limited direct in vitro activity
single agent activity in xenografts [3]: single agent activity was observed
expression of Ikaros [4]: inhibited
HIF1α induction in response to hypoxia [5]: inhibits
Rat STD10 (severely toxic dose in 10% of the animals), Animal Dose ([6]; 28-day toxicity study, rat): 300 mg mg base/kg/day
HED (mg/person) from rat STD10 ([6]; 60-kg human body weight): 2900 mg mg base/person
HED (mg/kg) from rat STD10 ([6]; human equivalent dose): 48 mg mg base/kg
Starting Dose (mg) from rat STD10 ([6]; safety factor 10): 290 mg mg base
expression of Aiolos ([7]; absence of a proteasome inhibitor, 60, 120, 240, 500 and 100 nM): inhibit the expression of Aiolos
expression of Aiolos ([7]; proteasome inhibitor present): little inhibition
MCP-1 (% of control) [8]: 236 % of control
inhibitory effect on Aiolos expression [9]: showed inhibitory effect
Monkey HNSTD ([10]; 28-day toxicity study, monkey): 6 mg/m^2
Monkey HNSTD (highest non-severely toxic dose), Animal Dose ([10]; 28-day toxicity study, monkey): 0.5 mg base/kg/day and 0.5 mg mg base/kg/day
HED (mg/person) from monkey HNSTD ([10]; 60-kg human body weight): 10 mg mg base/person
HED (mg/kg) from monkey HNSTD ([10]; human equivalent dose): 0.16 mg mg base/kg
Starting Dose (mg) from monkey HNSTD ([10]; safety factor 6): 1.7 mg mg base
IL-10 (% of control) [11]: 480 % of control
endogenous Aiolos ([12]; Her^2+ cells (AU565, BT-474, EFM-192A and HCC1954)): inhibited
levels of Aiolos ([12]; ZR 75-1 and AU565 cell lines, 24 hours after the treatment): reduced the levels of Aiolos
expression of Aiolos [13]: inhibited
RANTES (% of control) [14]: 131 % of control
NFKB DNA binding activity [15]: partially inhibits
